Experiment [1] concerns ACAT enzyme. Briefly: ACAT Inhibition Assay (inhibition of cholesterol esterification in cultured Fu5AH rat hepatoma cells). Type of experiment: cell-based. The conditions noted are these: for % Inhib. of Chol. Esterf.: Fu5AH cells, 18 hours; for Activity: compared with chlorpromazine. Details: key to Activity: Active: Compounds with ACAT inhibiting activity equal to, or greater than, that of chloropromazine are declared active. The source says:
A standard in vitro test system designed to identify compounds capable of inhibitory the ACAT enzyme in cultured Fu5AH rat hepatoma cells which was used to test the compounds of this invention, among others, is described hereinbelow.
Since the ACAT enzyme in Fu5AH cells is similar if not identical to the ACAT enzyme in arterial tissue in valuable, warm-blooded animals, including humans, the Fu5AH cell test represents a more efficient, simplified and economical means of screening for ACAT inhibitors than similar assays which depend upon the use of arterial tissue and arterial subfractions as the source of the ACAT enzyme.
For our in vitro test the Fu5AH rat hepatoma cell line was selected as our source of the ACAT enzyme since this particular cell line mimicked important characteristics of human and valuable animal arterial cells during the development of atherosclerosis. The Fu5AH cells accumulate cholesterol extensively when incubated with hyperlipemic plasma proteins; more importantly, Fu5HA cells accumulated the cholesterol predominantly as the esterified form through the action of the ACAT enzyme. See Rothblat, G. H., "Cholesteryl Ester Metabolism in Tissue Culture Cell. I. Accumulation in Fu5AH Rat Hepatoma Cells", Lipids, 9, (1974) page 526.
The Fu5AH cells used in our in vitro assay were first acquired from G. H. Rothblat, supra, of the Medical College of Pa.
The Fu5AH rat hepatoma cell-line was derived from the Reuber H-35 rat hepatoma. (See Reuber, M.D., "A Transplantable Bilesecreting Hepatocellular Carcinoa in the Rat", J. Natl., Cancer Inst., 26 (1961), page 891. The cell-line is maintained in Eagle's Minimal Essential Medium (MEM, GiBCO) supplemented with 5% bovine fetal calf serum. Incubation is at 36° C. in an atmosphere of 5% CO2 in air (Hotpack, Model 351922). Cells from stock cultures, grown to confluency in 25 cm^2 flasks (Falcon) containing 10 ml. medium, are detached with 0.25% trypsin in 1% ethylenediaminetetraacetic acid (EDTA) (Gibco), diluted 1:10 with MEM and mixed by agitation through a pipette which serves to disrupt the cellular clumps. Stock cultures are replenished with fresh medium at 3 to 4 day intervals.
One ml. aliquots of the diluted stock suspension described above are then transferred to 60 mm. dishes (Falcon) containing four ml. MEM and the seeded cells are allowed to grow to confluence (three days). At confluence, the medium is removed by aspiration and the cells are washed once with MEM. Five ml. of MEM supplemented with 5% hyperlipemic rabbit serum (HRS) (HRS is obtained from male New Zealane rabbits fed Purina Chow® rabbit feed supplemented with 1% cholesterol and 3% peanut oil (w/w/w/) for two to three weeks. Pooled sera from two or more rabbits are filtered through a 0.45 mμ filter (Nalgene) and stored frozen in convenient aliquots until used) and containing 1μ Ci/ml of ^3 H-cholesterol are then added to the dishes as the experimental (assay) medium. The experimental medium is labeled with 1,2-^3 H(N)-cholesterol (sp. act. approx. 40-60 Ci/mol, New Zealand Nuclear Corp.) prior to its addition to the confluent cultures and is prepared as follows. Five ml. of HRS is diluted with approximately 20 ml of MEM and the mixture is labeled by the addition of 100 μCi ^3 H-cholesterol dissolved in 100 μl absolute ethyl alcohol. The resulting mixture is then incubated for four hours at 36° C. to permit equilibration of the labeled cholesterol with the serum lipoprotein-cholesterol. After the equilibration period, the mixture is diluted to 100 ml. with MEM and used as the labeled assay medium. Following the addition of the labeled medium to the dishes, dimethylsulfoxide solutions of the test substances and the positive standard chloropromazine HCl (1 mg/ml) are added to the cultures in volumes of 25, 50, […]; control cultures receive equivalent volumes of dimethylsufoxide alone. […]

In experiment [2] the test system is ACAT enzyme. The conditions noted are these: known drug; cited from earlier work.

Consider `O=C1c2c(c(=O)n3nc(-c4ccccc4)cc3n2Cc2ccccc2)CN1Cc1ccccc1` [Example 8, 4,6-Bis(phenylmethyl)-6,7-dihydro-2-phenyl-4H-pyrazolo[1,5-a]pyrrolo[3,4-d]pyrimidine-5,8-dione], for which the “% Inhib. of Chol. Esterf.” value with ACAT enzyme [1] (5.0 ug/ml) was 60.8%; in the experiment on ACAT enzyme [1] (10.0 ug/ml) it was 89.5%; in the experiment on ACAT enzyme [1] (15.0 ug/ml), 92.3%. In addition, the result in the experiment with ACAT enzyme [1] (5.0 ug/ml), with ACAT enzyme [1] (10.0 ug/ml) and with ACAT enzyme [1] (15.0 ug/ml) was Active.
Consider `O=C1c2c(c(=O)n3ncc(-c4ccccc4)c3n2Cc2ccccc2)CN1C1CCCCC1` [Example 10, 6-Cyclohexyl-6,7-dihydro-3-phenyl-4-(phenylmethyl)-4H-pyrazolo-[1,5-a]pyrrolo[3,4-d]-pyrimidine-5,8-dione], for which the “% Inhib. of Chol. Esterf.” value stood at 34.4% in the experiment on ACAT enzyme [1] (5.0 ug/ml), 20.9% in the experiment on ACAT enzyme [1] (10.0 ug/ml) and 9.1% with ACAT enzyme [1] (15.0 ug/ml). In addition, the Activity entry with ACAT enzyme [1] (5.0 ug/ml) is “Active”; in the experiment on ACAT enzyme [1] (10.0 ug/ml), “Inactive”; with ACAT enzyme [1] (15.0 ug/ml), “Inactive”.
As for `O=C1c2c(c(=O)n3nc(-c4ccc(O)cc4)cc3n2Cc2ccccc2)CN1C1CCCCC1` [Example 16, 6-Cyclohexyl-6,7-dihydro-2-(4-hydroxyphenyl)-4-phenyl-methyl-4H-pyrazolo[1,5-a]pyrrolo[3,4-d]pyrimidine-5,8-dione], the results for the “% Inhib. of Chol. Esterf.” value with ACAT enzyme [1] (5.0 ug/ml), with ACAT enzyme [1] (10.0 ug/ml) and with ACAT enzyme [1] (15.0 ug/ml) were 4.3%, 32.7% and 66.5%, respectively. In addition, the results for the Activity entry in the experiment on ACAT enzyme [1] (5.0 ug/ml), in the experiment with ACAT enzyme [1] (10.0 ug/ml) and with ACAT enzyme [1] (15.0 ug/ml) were “Inactive”, “Inactive” and “Active”, respectively.
`O=C1c2[nH]c3cc(-c4ccccc4)nn3c(=O)c2CN1C1CCCCC1` [6-Cyclohexyl-4,7-dihydro-2-phenyl-5H-pyrazolo[1,5-a]pyrrolo[3,4-d]pyrimidine-5,8(6H)-dione, reference compound]: in the experiment on ACAT enzyme [1] (starting material), the “activity in the ACAT enzyme screen (in words)” value is “inactive”.
As to `COC(=O)C1=C(C)NC(C)=C(C(=O)OC)C1c1ccccc1[N+](=O)[O-]` [nifedipine], the “ACAT enzyme inhibition (in words)” value with ACAT enzyme [2] is “inhibit the ACAT enzyme”.
With `CC(C)NC[C@H](O)COc1cccc2ccccc12` (racemic) [propanolol], the “ACAT enzyme inhibition (in words)” value in the experiment on ACAT enzyme [2] is recorded as “ACAT enzyme inhibiting activity”.
`C=CCOc1ccc(-c2cc3n(Cc4ccccc4)c4c(c(=O)n3n2)CN(C2CCCCC2)C4=O)cc1` [Example 15, 6-Cyclohexyl-6,7-dihydro-2-[4-(2-propenyloxy)phenyl]-4-phenylmethyl-4H-pyrazolo[1,5-a]pyrrolo[3,4-d]pyrimidine-5,8-dione]: the “% Inhib. of Chol. Esterf.” value in the experiment on ACAT enzyme [1] (5.0 ug/ml) came out at 36.0%; with ACAT enzyme [1] (10.0 ug/ml), 65.3%; in the experiment on ACAT enzyme [1] (15.0 ug/ml) it was 84.3%. Further, the outcome in the experiment with ACAT enzyme [1] (5.0 ug/ml), with ACAT enzyme [1] (10.0 ug/ml) and in the experiment on ACAT enzyme [1] (15.0 ug/ml) was Active.
Take `O=C1c2c(c(=O)n3nc(-c4ccccc4)cc3n2Cc2ccccc2)CN1c1ccccc1` [Example 7, 6,7-Dihydro-2,6-diphenyl-4-(phenylmethyl)-4H-pyrazolo[1,5-a]pyrrolo[3,4-d]-pyrimidine-5,8-dione]: the entries for the “% Inhib. of Chol. Esterf.” value with ACAT enzyme [1] (5.0 ug/ml), in the experiment with ACAT enzyme [1] (10.0 ug/ml) and in the experiment on ACAT enzyme [1] (15.0 ug/ml) were 21.2%, 17.6% and 15.0%, respectively. Also, the Activity entry is reported as “Active” in the experiment on ACAT enzyme [1] (5.0 ug/ml), “Inactive” in the experiment on ACAT enzyme [1] (10.0 ug/ml) and “Inactive” in the experiment on ACAT enzyme [1] (15.0 ug/ml).
In the case of `CCCCCCn1c2c(c(=O)n3nc(-c4ccccc4)cc13)CN(C1CCCCC1)C2=O` [Example 3, 6-Cyclohexyl-6,7-dihydro-4-hexyl-2-phenyl-4H-pyrazolo[1,5-a]pyrrolo[3,4-d]pyrimidine-5,8-dione], the “% Inhib. of Chol. Esterf.” value is recorded as 43.4% in the experiment with ACAT enzyme [1] (5.0 ug/ml), 48.2% in the experiment with ACAT enzyme [1] (10.0 ug/ml) and 49.2% with ACAT enzyme [1] (15.0 ug/ml). Further, the result with ACAT enzyme [1] (5.0 ug/ml), in the experiment on ACAT enzyme [1] (10.0 ug/ml) and in the experiment with ACAT enzyme [1] (15.0 ug/ml) was Active.
Consider `O=C1c2c(c(=O)n3nc(-c4ccccc4)cc3n2Cc2ccccc2)CCN1C1CCCCC1` [Example 9, 6-Cyclohexyl-2-phenyl-4-(phenylmethyl)-5,6,7,8-tetrahydro-4H-pyrazolo[1,5-a]pyrido[3,4-d]pyrimidine-5,9-dione], for which the “% Inhib. of Chol. Esterf.” value in the experiment with ACAT enzyme [1] (5.0 ug/ml) is 53.2%; in the experiment on ACAT enzyme [1] (10.0 ug/ml), 82.1%; in the experiment with ACAT enzyme [1] (15.0 ug/ml), 89.8%. The outcome with ACAT enzyme [1] (5.0 ug/ml), in the experiment on ACAT enzyme [1] (10.0 ug/ml) and in the experiment with ACAT enzyme [1] (15.0 ug/ml) was Active.
As for `COc1ccc([C@@H]2Sc3ccccc3N(CCN(C)C)C(=O)[C@@H]2OC(C)=O)cc1` [diltiazem], in the experiment on ACAT enzyme [2], the “ACAT enzyme inhibition (in words)” value is given as “inhibit the ACAT enzyme”.
Turning to `O=C1c2c(c(=O)n3nc(-c4ccccc4)cc3n2CC(O)c2ccccc2)CN1C1CCCCC1` (stereo not drawn) [Example 14, 6-Cyclohexyl-6,7-dihydro-4-(2-hydroxy-2-phenylethyl)-2-phenyl-4H-oyrazolo[1,5-a] pyrrolo[3,4-d]pyrimidine-5,8-dione], the “% Inhib. of Chol. Esterf.” value amounted to 49.6% in the experiment on ACAT enzyme [1] (5.0 ug/ml), 65.9% in the experiment on ACAT enzyme [1] (10.0 ug/ml) and 40.2% in the experiment with ACAT enzyme [1] (15.0 ug/ml). Further, the Activity entry is given as “Active” with ACAT enzyme [1] (5.0 ug/ml), “Active” in the experiment on ACAT enzyme [1] (10.0 ug/ml) and “Inactive” in the experiment with ACAT enzyme [1] (15.0 ug/ml).
On to `COc1ccc(CCN(C)CCCC(C#N)(c2ccc(OC)c(OC)c2)C(C)C)cc1OC` (stereo not drawn) [verapamil], for which, in the experiment with ACAT enzyme [2], the “ACAT enzyme inhibition (in words)” value is given as “inhibit the ACAT enzyme”.
As to `CN1C(=O)CN=C(c2ccccc2)c2cc(Cl)ccc21` [diazepam], in the experiment with ACAT enzyme [2], the “ACAT enzyme inhibition (in words)” value is listed as “ACAT enzyme inhibiting activity”.
Regarding `O=C(Cn1c2c(c(=O)n3nc(-c4ccc(Cl)cc4)cc13)CN(C1CCCCC1)C2=O)c1ccccc1` [Example 11, 4-(Benzoylmethyl)-2-(4-chlorophenyl)-6-cyclohexyl-6,7-dihydro-4H-pyrazolo[1,5-a]pyrrolo[3,4-d]pyrimidine-5,8-dione], the “% Inhib. of Chol. Esterf.” value came to 78.2% with ACAT enzyme [1] (5.0 ug/ml), 84.5% with ACAT enzyme [1] (10.0 ug/ml) and 89.2% with ACAT enzyme [1] (25.0 ug/ml (so in the source)). In addition, the result in the experiment on ACAT enzyme [1] (5.0 ug/ml), in the experiment with ACAT enzyme [1] (10.0 ug/ml) and in the experiment with ACAT enzyme [1] (25.0 ug/ml (so in the source)) was Active.
`CCOc1ccc(-c2cc3n(Cc4ccccc4)c4c(c(=O)n3n2)CN(C2CCCCC2)C4=O)cc1` [Example 6, 6-Cyclohexyl-6,7-dihydro-2-(4-ethoxyphenyl)-4-(phenylmethyl)-(4H)-pyrazolo[1,5-a]pyrrolo[3,4-d]pyrimidine-5,8-dione]: the “% Inhib. of Chol. Esterf.” value with ACAT enzyme [1] (5.0 ug/ml) is 49.8%; with ACAT enzyme [1] (10.0 ug/ml), 75.4%; in the experiment on ACAT enzyme [1] (15.0 ug/ml), 87.2%. The outcome in the experiment on ACAT enzyme [1] (5.0 ug/ml), with ACAT enzyme [1] (10.0 ug/ml) and with ACAT enzyme [1] (15.0 ug/ml) was Active.

The record behind these values is US5132424A, “Pyrazolo-pyrrolo-pyrimidine-diones” (The Upjohn Company, priority 1991, dated 1992).
